From patent US20110076293A1, “TRIPTOLIDE DERIVATIVES FOR MODULATION OF APOPTOSIS AND IMMUNOSUPPRESSION” (priority 2002, published 2011)
Like-named read-outs stand apart in the source and are kept apart here.

Experiments:
[1] = system: Jurkat human T lymphocyte cell line; assay: Apoptosis assay (Annexin V) of compounds incubated with human serum; conditions: for EC50: read-out: ED50 (nM) in apoptosis assay after incubation with serum, 37° C.
How it was run: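 Test compounds at 20 mM were preincubated in pooled human serum at 37° C for varying times, then serially diluted to final 1–10,000 nM. Jurkat cells (1×10^5 per well) were exposed for 24 h at 37° C, and apoptosis was scored by Annexin V-FITC flow cytometry. ED50 came from dose-response curves, and % conversion was expressed relative to the triptolide ED50 in the same serum.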

in vitro = conditions: incomplete conversion to triptolide, 48 hr incubation
Description: Compounds of formula I, as shown in Table 1 above and in the Examples, were assayed for their capacity to induce apoptosis in cells from the Jurkat human T lymphocyte cell line, after incubation with pooled human serum for varying periods of time at 37° C. (see Example 19). An ester prodrug, triptolide-14-succinate, designated PG490-88, was included for comparison. The extent of conversion to triptolide after such incubation was also independently determined by HPLC analysis.
Prodrug conversions to triptolide as determined independently by HPLC are given in […].

[2] = Table 3, human serum, 0 hr, 10000 nM
[3] = Table 3, human serum, 48 hr, 1 nM
[4] = Table 3, human serum, 48 hr, 3 nM
[5] = Table 3, human serum, 48 hr, 10 nM
[6] = Table 3, human serum, 48 hr, 30 nM
[7] = Table 3, human serum, 48 hr, 100 nM
[8] = Table 3, human serum, 48 hr, 300 nM
[9] = Table 3, human serum, 48 hr, 1000 nM
[10] = Table 3, human serum, 48 hr, 3000 nM
[11] = Table 3, human serum, 48 hr, 10000 nM
[12] = Table 4, serum, 48 hr, 10000 nM
[13] = Table 5, human serum (48 hrs), 1 nM
[14] = Table 5, human serum (48 hrs), 3 nM
[15] = Table 5, human serum (48 hrs), 10 nM
[16] = Table 5, human serum (48 hrs), 30 nM
[17] = Table 5, human serum (48 hrs), 100 nM
[18] = Table 5, human serum (48 hrs), 300 nM
[19] = Table 5, human serum (48 hrs), 1000 nM
[20] = Table 5, human serum (48 hrs), 3000 nM
[21] = incubation time in human serum 0.5 hours
[22] = incubation time in human serum 1 hour
[23] = incubation time in human serum 24 hours
[24] = incubation time in human serum 48 hours
[25] = after 48 hr. incubation in human serum

Compound: CC(C)[C@]12O[C@H]1[C@@H]1O[C@]13[C@]1(O[C@H]1C[C@H]1C4=C(CC[C@@]13C)C(=O)OC4)[C@@H]2OC(=O)CCC(=O)O [PG490-88, triptolide-14-succinate, reference compound]
- % apoptotic cells at given concentration (nM) [1, 2]: 89.2%
- % apoptotic cells at given concentration (nM) [1, 3]: 7.8%
- % apoptotic cells at given concentration (nM) [1, 4]: 8.1%
- % apoptotic cells at given concentration (nM) [1, 5]: 7.8%
- % apoptotic cells at given concentration (nM) [1, 6]: 9.1%
- % apoptotic cells at given concentration (nM) [1, 7]: 51.5%
- % apoptotic cells at given concentration (nM) [1, 8]: 92.1%
- % apoptotic cells at given concentration (nM) [1, 9]: 93.9%
- % apoptotic cells at given concentration (nM) [1, 10]: 94.1%
- % apoptotic cells at given concentration (nM) [1, 11]: 95.1%
- % apoptotic cells at given concentration (nM) ([1]; Table 3, medium only, 10000 nM): 93.8%
- % apoptotic cells at given concentration (nM) ([1]; Table 4, medium, 10000 nM): 89.7%
- % apoptotic cells at given concentration (nM) ([1]; Table 4, serum, 0 hr, 10000 nM): 82.9%
- % apoptotic cells at given concentration (nM) ([1]; Table 4, serum, 48 hr, 0.03 nM): 6.6%
- % apoptotic cells at given concentration (nM) ([1]; Table 4, serum, 48 hr, 0.1 nM): 6.5%
- % apoptotic cells at given concentration (nM) ([1]; Table 4, serum, 48 hr, 0.3 nM): 7.0%
- % apoptotic cells at given concentration (nM) ([1]; Table 4, serum, 48 hr, 1 nM): 6.0%
- % apoptotic cells at given concentration (nM) ([1]; Table 4, serum, 48 hr, 3 nM): 6.2%
- % apoptotic cells at given concentration (nM) ([1]; Table 4, serum, 48 hr, 10 nM): 6.2%
- % apoptotic cells at given concentration (nM) ([1]; Table 4, serum, 48 hr, 30 nM): 6.8%
- % apoptotic cells at given concentration (nM) ([1]; Table 4, serum, 48 hr, 100 nM): 30.5%
- % apoptotic cells at given concentration (nM) ([1]; Table 4, serum, 48 hr, 300 nM): 89.6%
- % apoptotic cells at given concentration (nM) ([1]; Table 4, serum, 48 hr, 1000 nM): 92.6%
- % apoptotic cells at given concentration (nM) ([1]; Table 4, serum, 48 hr, 3000 nM): 92.8%
- % apoptotic cells at given concentration (nM) [1, 12]: 93.9%
- % apoptotic cells at given concentration (nM) [1, 13]: 8.6%
- % apoptotic cells at given concentration (nM) [1, 14]: 9.3%
- % apoptotic cells at given concentration (nM) [1, 15]: 8.7%
- % apoptotic cells at given concentration (nM) [1, 16]: 7.8%
- % apoptotic cells at given concentration (nM) [1, 17]: 23.3%
- % apoptotic cells at given concentration (nM) [1, 18]: 88.4%
- % apoptotic cells at given concentration (nM) [1, 19]: 90.5%
- % apoptotic cells at given concentration (nM) [1, 20]: 91.7%
- % apoptotic cells at given concentration (nM) ([1]; Table 5, medium, 3000 nM): 64.8%
- Conversion, as relative ED50 compared to triptolide (%) [1, 21]: 2%
- Conversion, as relative ED50 compared to triptolide (%) [1, 22]: 2%
- Conversion, as relative ED50 compared to triptolide (%) [1, 23]: 18%
- Conversion, as relative ED50 compared to triptolide (%) [1, 24]: 43%
- EC50 [1, 21]: 2580 nM
- EC50 [1, 22]: 2270 nM
- EC50 [1, 23]: 328 nM
- EC50 [1, 24]: 147 nM
- max. conversion at 48 hr in human plasma by HPLC (in vitro): max. 26%

Compound: CCNC(=O)O[C@@H]1[C@@]2(C(C)C)O[C@H]2[C@@H]2O[C@]23[C@]12O[C@H]2C[C@H]1C2=C(CC[C@@]13C)C(=O)OC2 [PG666, Triptolide 14-Ethyl Carbamate]
- % apoptotic cells at given concentration (nM) [1, 2]: 93.6%
- % apoptotic cells at given concentration (nM) [1, 3]: 13.4%
- % apoptotic cells at given concentration (nM) [1, 4]: 14.4%
- % apoptotic cells at given concentration (nM) [1, 5]: 14.0%
- % apoptotic cells at given concentration (nM) [1, 6]: 10.1%
- % apoptotic cells at given concentration (nM) [1, 7]: 11.0%
- % apoptotic cells at given concentration (nM) [1, 8]: 20.6%
- % apoptotic cells at given concentration (nM) [1, 9]: 91.0%
- % apoptotic cells at given concentration (nM) [1, 10]: 92.9%
- % apoptotic cells at given concentration (nM) [1, 11]: 93.5%
- % apoptotic cells at given concentration (nM) ([1]; Table 3, medium only, 10000 nM): 94.3%
- % apoptotic cells at given concentration (nM) ([1]; Table 4, medium, 10000 nM): 92.6%
- % apoptotic cells at given concentration (nM) ([1]; Table 4, serum, 0 hr, 10000 nM): 87.2%
- % apoptotic cells at given concentration (nM) ([1]; Table 4, serum, 48 hr, 0.03 nM): 39.9%
- % apoptotic cells at given concentration (nM) ([1]; Table 4, serum, 48 hr, 0.1 nM): 40.7%
- % apoptotic cells at given concentration (nM) ([1]; Table 4, serum, 48 hr, 0.3 nM): 40.8%
- % apoptotic cells at given concentration (nM) ([1]; Table 4, serum, 48 hr, 1 nM): 41.3%
- % apoptotic cells at given concentration (nM) ([1]; Table 4, serum, 48 hr, 3 nM): 39.8%
- % apoptotic cells at given concentration (nM) ([1]; Table 4, serum, 48 hr, 10 nM): 39.8%
- % apoptotic cells at given concentration (nM) ([1]; Table 4, serum, 48 hr, 30 nM): 39.1%
- % apoptotic cells at given concentration (nM) ([1]; Table 4, serum, 48 hr, 100 nM): 40.2%
- % apoptotic cells at given concentration (nM) ([1]; Table 4, serum, 48 hr, 300 nM): 44.5%
- % apoptotic cells at given concentration (nM) ([1]; Table 4, serum, 48 hr, 1000 nM): 88.6%
- % apoptotic cells at given concentration (nM) ([1]; Table 4, serum, 48 hr, 3000 nM): 96.8%
- % apoptotic cells at given concentration (nM) [1, 12]: 92.3%
- % apoptotic cells at given concentration (nM) [1, 13]: 9.8%
- % apoptotic cells at given concentration (nM) [1, 14]: 10.9%
- % apoptotic cells at given concentration (nM) [1, 15]: 10.4%
- % apoptotic cells at given concentration (nM) [1, 16]: 10.2%
- % apoptotic cells at given concentration (nM) [1, 17]: 9.5%
- % apoptotic cells at given concentration (nM) [1, 18]: 14.9%
- % apoptotic cells at given concentration (nM) [1, 19]: 87.7%
- % apoptotic cells at given concentration (nM) [1, 20]: 91.0%
- % apoptotic cells at given concentration (nM) ([1]; Table 5, medium, 1 nM): 13.9%
- % apoptotic cells at given concentration (nM) ([1]; Table 5, medium, 3 nM): 13.1%
- % apoptotic cells at given concentration (nM) ([1]; Table 5, medium, 10 nM): 13.4%
- % apoptotic cells at given concentration (nM) ([1]; Table 5, medium, 30 nM): 13.0%
- % apoptotic cells at given concentration (nM) ([1]; Table 5, medium, 100 nM): 13.2%
- % apoptotic cells at given concentration (nM) ([1]; Table 5, medium, 300 nM): 14.2%
- % apoptotic cells at given concentration (nM) ([1]; Table 5, medium, 1000 nM): 14.1%
- % apoptotic cells at given concentration (nM) ([1]; Table 5, medium, 3000 nM): 92.1%
- apoptotic activity (in words) [1, 25]: more active than PG688
- concentration for equal apoptotic activity relative to PG490 (triptolide) [1, 25]: ~10 fold

Compound: CC(C)[C@]12O[C@H]1[C@@H]1O[C@]13[C@]1(O[C@H]1C[C@H]1C4=C(CC[C@@]13C)C(=O)OC4)[C@@H]2O [PG490, Triptolide]
- % apoptotic cells at given concentration (nM) [1, 2]: 94.9%
- % apoptotic cells at given concentration (nM) [1, 3]: 8.5%
- % apoptotic cells at given concentration (nM) [1, 4]: 8.5%
- % apoptotic cells at given concentration (nM) [1, 5]: 8.5%
- % apoptotic cells at given concentration (nM) [1, 6]: 26.2%
- % apoptotic cells at given concentration (nM) [1, 7]: 91.7%
- % apoptotic cells at given concentration (nM) [1, 8]: 93.4%
- % apoptotic cells at given concentration (nM) [1, 9]: 94.6%
- % apoptotic cells at given concentration (nM) [1, 10]: 95.2%
- % apoptotic cells at given concentration (nM) [1, 11]: 95.4%
- % apoptotic cells at given concentration (nM) ([1]; Table 3, medium only, 10000 nM): 96.5%
- % apoptotic cells at given concentration (nM) ([1]; Table 4, medium, 10000 nM): 93.4%
- % apoptotic cells at given concentration (nM) ([1]; Table 4, serum, 0 hr, 10000 nM): 92.1%
- % apoptotic cells at given concentration (nM) ([1]; Table 4, serum, 48 hr, 0.03 nM): 7.0%
- % apoptotic cells at given concentration (nM) ([1]; Table 4, serum, 48 hr, 0.1 nM): 6.9%
- % apoptotic cells at given concentration (nM) ([1]; Table 4, serum, 48 hr, 0.3 nM): 6.8%
- % apoptotic cells at given concentration (nM) ([1]; Table 4, serum, 48 hr, 1 nM): 6.4%
- % apoptotic cells at given concentration (nM) ([1]; Table 4, serum, 48 hr, 3 nM): 7.0%
- % apoptotic cells at given concentration (nM) ([1]; Table 4, serum, 48 hr, 10 nM): 7.1%
- % apoptotic cells at given concentration (nM) ([1]; Table 4, serum, 48 hr, 30 nM): 29.4%
- % apoptotic cells at given concentration (nM) ([1]; Table 4, serum, 48 hr, 100 nM): 90.9%
- % apoptotic cells at given concentration (nM) ([1]; Table 4, serum, 48 hr, 300 nM): 93.0%
- % apoptotic cells at given concentration (nM) ([1]; Table 4, serum, 48 hr, 1000 nM): 93.2%
- % apoptotic cells at given concentration (nM) ([1]; Table 4, serum, 48 hr, 3000 nM): 94.6%
- % apoptotic cells at given concentration (nM) [1, 12]: 94.2%
- % apoptotic cells at given concentration (nM) [1, 13]: 8.8%
- % apoptotic cells at given concentration (nM) [1, 14]: 8.5%
- % apoptotic cells at given concentration (nM) [1, 15]: 8.6%
- % apoptotic cells at given concentration (nM) [1, 16]: 15.9%
- % apoptotic cells at given concentration (nM) [1, 17]: 86.5%
- % apoptotic cells at given concentration (nM) [1, 18]: 90.7%
- % apoptotic cells at given concentration (nM) [1, 19]: 91.7%
- % apoptotic cells at given concentration (nM) [1, 20]: 93.1%
- % apoptotic cells at given concentration (nM) ([1]; Table 5, medium, 3000 nM): 93.7%
